Where only a bound is given, the exact number is not on record here.

The target in this assay is human recombinant renin (Homo sapiens (Human), UniProt P00797). Nature of the assay: human renin activity inhibition (SensoLyte 520 Renin Assay Kit Fluorimetric). The assay is classed as biochemical. Particulars: 30 min preincubation at 37° C., fluorescence at 530 nm after 15 min at 37° C., read-out: IC50 (nM), inhibitory effect on human renin activity. As for the experimental part: The exemplary compounds of the disclosure were tested for their inhibitory effects on human renin activity, using a commercially available renin assay kit (SensoLyte® 520 Renin Assay Kit Fluorimetric), following the manufacture's manual.
human recombinant renin, sequence (P00797 67-406): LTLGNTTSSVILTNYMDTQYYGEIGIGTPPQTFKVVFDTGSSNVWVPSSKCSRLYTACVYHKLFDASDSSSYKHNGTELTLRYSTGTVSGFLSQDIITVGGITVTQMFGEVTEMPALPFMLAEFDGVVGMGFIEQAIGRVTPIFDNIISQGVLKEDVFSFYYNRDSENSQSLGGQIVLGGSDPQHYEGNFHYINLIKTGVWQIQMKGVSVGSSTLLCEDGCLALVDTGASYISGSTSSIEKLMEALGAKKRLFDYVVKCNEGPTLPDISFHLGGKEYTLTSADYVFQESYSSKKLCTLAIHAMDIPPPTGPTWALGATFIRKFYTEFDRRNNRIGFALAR
Briefly, human recombinant renin (from the kit) was incubated with the compound of the disclosure or buffer for 30 min at 37° C. before substrate addition. Fluorescence intensity was measured at 530 nm after an incubation of 15 min at 37° C. Data was analyzed by Prism and fitted into a sigmodal curve for IC50 calculation.
As for `CO[C@H]1C[C@H](Nc2nc(C(C)(C)C)ncc2C(=O)N(CC(C)C)C2CNCC(C(=O)N3CCOCC3)C2)C1` (stereo partly drawn) [Compound 17, (3S)—{N-(2-methylpropyl), N-{2-tert-butyl-3-[3-(trans-methoxy)cyclobutyl]amino}pyrimidine-5-carbonyl}amino-(5R)-(morpholine-N-carbonyl)-piperidine], the 50% inhibitory concentration (IC50) (usually the concentration that gives 50% inhibition) was 1.5 nM.
The figure for `CO[C@H]1C[C@H](Nc2cc(C3CC3)cnc2C(=O)N(CC(C)C)C2CNCC(C(=O)N3CCOCC3)C2)C1` (stereo partly drawn) [Compound 18, (3S)—{N-(2-methylpropyl), N-{5-cyclopropyl-3-[3-(trans-methoxy)cyclobutyl]amino}pyridine-2-carbonyl}amino-(5R)-(morpholine-N-carbonyl)-piperidine] is 1.2 nM.
Regarding `CO[C@H]1C[C@@H](Nc2cc(C3CC3)cnc2C(=O)N(CC(C)C)C2CNCC(C(=O)N3CCOCC3)C2)C1` (stereo partly drawn) [Compound 19, (3S)—{N-(2-methylpropyl), N-{5-cyclopropyl-3-[3-(cis-methoxy)cyclobutyl]amino}pyridine-2-carbonyl}amino-(5R)-(morpholine-N-carbonyl)-piperidine], the IC50 turned out to be 1.5 nM.
The figure for `CC(C)CN(C(=O)c1ncc(C2CC2)cc1NC1CCC1)C1CNCC(C(=O)N2CCOCC2)C1` [Compound 20, (3S)—[N-(2-methylpropyl), N-(5-cyclopropyl-3-cyclobutylamino)pyridine-2-carbonyl]amino-(5R)-(morpholine-N-carbonyl)-piperidine] is 1.9 nM; for `CC(C)CN(C(=O)c1ncc(C2CC2)cc1NC1CC1)C1CNCC(C(=O)N2CCOC[C@@H]2C)C1` (stereo partly drawn) [Compound 21, (3S)—[N-(2-methylpropyl), N-(5-cyclopropyl-3-cyclopropylamino)pyridine-2-carbonyl]amino-(5R)-[(3S)-methylmorpholine-N-carbonyl]-piperidine] it is 1.4 nM; for `CO[C@H]1C[C@H](Nc2cc(C3CC3)cnc2C(=O)N(CC(C)C)C2CNC[C@H](c3nnc(C)o3)C2)C1` (stereo partly drawn) [Compound 22, (3S)—{N-(2-methylpropyl), N-{5-cyclopropyl-3-[3-(trans-methoxy)cyclobutyl]amino}pyridine-2-carbonyl}amino-(5R)-(5-methyl-1,3,4-oxadiazol-2-yl)-piperidine] it is 1.3 nM.
With `CO[C@H]1C[C@H](Nc2cc(C3CC3)cnc2C(=O)N(CC(C)C)C2CNC[C@H](c3nnc(C4CC4)o3)C2)C1` (stereo partly drawn) [Compound 23, (3S)—{N-(2-methylpropyl), N-{5-cyclopropyl-3-[3-(trans-methoxy)cyclobutyl]amino}pyridine-2-carbonyl}amino-(5R)-(5-cyclopropyl-1,3,4-oxadiazol-2-yl)-piperidine], the IC50 stood at 1.2 nM.
For `CO[C@H]1C[C@H](Nc2cc(C3CC3)cnc2C(=O)N(CC(C)C)C2CNC[C@H](c3nnc(C4CC(F)(F)C4)o3)C2)C1` (stereo partly drawn) [Compound 24, (3S)—{N-(2-methylpropyl), N-{5-cyclopropyl-3-[3-(trans-methoxy)cyclobutyl]amino}pyridine-2-carbonyl}amino-(5R)-(3,3-diflurorocyclobutyl-1,3,4-oxadiazol-2-yl)-piperidine] the value was 1 nM.
With `CC(C)CN(C(=O)c1ncc(C2CC2)cc1NC1CC1)[C@@H]1CNC[C@H](C(=O)N2CCOCC2)C1` [Compound 25, (3S)—[N-(2-methylpropyl), N-(5-cyclopropyl-3-cyclopropylamino)pyridine-2-carbonyl]amino-(5R)-(morpholine-N-carbonyl)-piperidine], the concentration for half-maximal inhibition (IC50) is below 10 nM.
For `CO[C@H]1C[C@H](Nc2cc(C3CC3)cnc2C(=O)N(CC(C)C)[C@H]2CCCNC2)C1` [Compound 26, (3S)—{N-(2-methylpropyl), N-{5-cyclopropyl-3-[3-(trans-methoxy)cyclobutyl]amino}pyridine-2-carbonyl}amino-piperidine] the value was below 20 nM.

These data come from patent US20240327385A1, “SUBSTITUTED PIPERIDINE COMPOUNDS AS RENIN INHIBITORS” (priority 2023, published 2024).
